Patent US20250082781A1, “METHODS OF LOWERING BLOOD GLUCOSE AND TREATING TYPE 2 DIABETES BY ACTIVATION OF PDE4D3” (Salk Institute for Biological Studies, priority 2021, published 2025)

Key:
[1] = test system: human SVF-derived adipocytes; test: In vitro lipolysis assay (FFA release), human SVF-derived adipocytes; type: cell-based
Procedure: Differentiation of pre-adipocytes were based on previously published methods (Bunnell et al., 2008). Briefly, 3T3-L1 pre-adipocytes were grown to full confluence in DMEM, 10% FBS (GemCell, 100-500), 10 mM HEPES and antibiotic-antimycotic (full growth media). 2 days later, differentiation was induced by replacing the media with 1 μM dexamethasone, 1 μM rosiglitazone, 500 μM IBMX and 5 μg/ml insulin in full growth media 2 days later after reaching full confluence. Two days later media was replaced by differentiation induction media with 1 μM rosiglitazone and 5 μg/ml insulin for 4 days with media change after 2 days. Cells were kept in maintenance medium (full growth media with 5 μg/ml insulin) for 4 more days for full differentiation. For differentiation of mouse SVF derived adipocytes, the protocol was same except DMEM/F12 (10565018, ThermoFisher) was used as base media and initial differentiation induction media was kept for 3 days. For differentiation of human subcutaneous adipocytes, protocol and media from the manufacturer (C-12735, C-39437, Promocell) were used. […]
For in vitro lipolysis assay, cells were washed with PBS and media were changed to full growth media 1 day before experiment. […] FFAs were measured in the media using a commercial kit (Wako-NEFAHR2) and normalized to protein concentration. […] FFAs were measured and normalized by the explant weights.

[2] = test system: 3T3-L1 adipocytes; test: In vitro lipolysis assay (FFA release), 3T3-L1 adipocytes; type: cell-based
Procedure: Differentiation of pre-adipocytes were based on previously published methods (Bunnell et al., 2008). Briefly, 3T3-L1 pre-adipocytes were grown to full confluence in DMEM, 10% FBS (GemCell, 100-500), 10 mM HEPES and antibiotic-antimycotic (full growth media). 2 days later, differentiation was induced by replacing the media with 1 μM dexamethasone, 1 μM rosiglitazone, 500 μM IBMX and 5 μg/ml insulin in full growth media 2 days later after reaching full confluence. Two days later media was replaced by differentiation induction media with 1 μM rosiglitazone and 5 μg/ml insulin for 4 days with media change after 2 days. Cells were kept in maintenance medium (full growth media with 5 μg/ml insulin) for 4 more days for full differentiation. For differentiation of mouse SVF derived adipocytes, the protocol was same except DMEM/F12 (10565018, ThermoFisher) was used as base media and initial differentiation induction media was kept for 3 days. For differentiation of human subcutaneous adipocytes, protocol and media from the manufacturer (C-12735, C-39437, Promocell) were used. Dexamethasone was omitted from the media in the last 3 days before performing experiments. Both mouse and human SVF derived adipocytes were differentiated in collagen coated plates (A1142802, ThermoFisher).
For in vitro lipolysis assay, cells were washed with PBS and media were changed to full growth media 1 day before experiment. Cells were serum starved for 2 h and placed in KRBH buffer (30 mM HEPES, 120 mM NaCl, 4 mM KH2PO4, 1 mM MgSO4, 0.75 mM CaCl2), and 10 mM NaHCO3) with 2% fatty acid free BSA and 5 mM glucose. FGF1 was added 10 min before induction of lipolysis with 100 nM isoprotenol (ISO). Inhibitors were added 30 min prior to FGF1 treatment unless otherwise noted. Media were collected and cells were lysed in protein extraction buffer. FFAs were measured in the media using a commercial kit (Wako-NEFAHR2) and normalized to protein concentration. For ex vivo lipolysis, the assay was modified from a published protocol (Funicello et al., 2007). Briefly, approximately 0.1 gram of adipose tissue was excised, weighed and kept in cold PBS until treatment and control tissues were collected. Tissues were cut into small pieces and incubated in same KRBH buffer as described above for 4 h. FFAs were measured and normalized by the explant weights.

[3] = test system: endogenous glucose production; test: Hyperinsulinemic clamp in ob/ob mice; type: in vivo, mouse; details: FGF1 0.5 mg/kg every other day for a week
Procedure: Before the test, mice were equipped with a permanent catheter in the right atrium via the jugular vein and were allowed to recover over a period of at least 3 days. After the recovery period, the mice were placed in experimental cages. All infusion experiments were performed in conscious, unrestrained mice as described previously (van Dijk et al., 2003). During the experiment, blood glucose levels were determined every 15 minutes using a Lifescan EuroFlash glucose meter. For GC-MS analysis of [U-^13C] glucose, bloodspots on filter paper were collected from the tail vein every 30 minutes.
Ob/ob mice were treated for 1 week with rFGF1 (0.5 mg kg^−1 every other day for one week). Steady state glucose fluxes were determined for basal and hyperinsulinemic-euglycemic clamp conditions. During the first period, mice were infused with a solution containing a tracer of [U-13C] glucose (2.5 mg/ml Cambridge Isotope Laboratories, Andover, MA) at an infusion rate of 0.54 ml/h. With respect to the final period, blood glucose levels were clamped at 20 mM. For this, the mice were infused at a constant rate of 0.135 ml/h with a mixture of insulin (44 mU/ml, Actrapid, Novo Nordisk, Bagsvaerd, Denmark), somatostatin (20 μg/ml, UCB Breda, the Netherlands), 1% BSA, and glucose (200 mg/ml from which 3% [U-^13C] glucose). Additionally, a second (variable) infusion was used containing glucose (200 mg/ml from which 3% [U-^13C] glucose) to adjust blood glucose levels.

[4] = test system: perilipin-HSL co-localization; test: Perilipin-GFP and HSL-mCherry co-localization in 3T3-L1 adipocytes; type: cell-based
Procedure: 3T3-L1 cells were transduced with viral particles ([…]) in 24 well plates. Media was replaced after overnight incubation. 3-4 days after AAV infection, cells were treated as described for lipolysis assay. For cAMP analysis by biosensors, Downward Green cADDis cAMP Sensor (D0200G) and control mNeon Green (F0500G) produced in BacMam system was purchased from Montana Molecular. Brightfield and fluorescence images were taken every 10-20 min in I IncuCyte® Live-cell analysis system (Sartorius) and images were analyzed by IncuCyte® Analysis Software. High-resolution live cell imaging was performed with LSM 880 Airyscan microscope at 40× objective.

For “FGF1: Recombinant fibroblast growth factor 1 protein, dissolved in PBS, injected subcutaneously”, the “anti-lipolytic activity of FGF1 with selective inhibitors of PDE4” value ([1]; FGF1 100 ng/ml with roflumilast 2 μM) was “blocked by selective inhibitors of PDE4”, the “basal and isoproterenol-induced lipolysis” value ([1]; FGF1 100 ng/ml, 10 min before ISO 1 nM) was “acutely suppressed basal and isoproterenol-induced lipolysis” and the “FGF1 suppression of lipolysis under FGFR1 inhibition” value ([2]; FGF1 100 ng/ml with FGFR1 inhibitor PD 173074 1 μM) was “blocked by FGFR1 inhibition”. For the same substance, the “FGF1-induced suppression of lipolysis under PDE3B inhibition” value ([2]; FGF1 100 ng/ml with PDE3 inhibitors (cilostamide or quazinone 10 μM)) was “did not impair”, the “anti-lipolytic activity of FGF1 with selective inhibitors of PDE4” value ([2]; FGF1 100 ng/ml with roflumilast 2 μM or cilomulast 10 μM) was “blocked by selective inhibitors of PDE4” and the isoproterenol-induced lipolysis ([2]; dose response of FGF1, ISO 100 nM, 4 h) was “dose-dependently suppressed isoproterenol-induced lipolysis”. The “reduction in basal endogenous glucose production (EGP)” value [3] was about 25%, the “exogenous glucose infusion rate (GIR)” value ([3]; clamp conditions) was “higher” and the “glucose disposal rate (GDR)” value ([3]; clamp conditions) was “not altered”. For the same substance, the “isoproterenol-induced co-localization of perilipin-GFP and HSL-mCherry” value ([4]; FGF1 100 ng/ml pretreatment, ISO 100 nM) was “reduced the isoproterenol-induced co-localization of perilipin-GFP and HSL-mCherry” and the “FGF1 effect on perilipin-HSL co-localization under PDE4 inhibition” value ([4]; roflumilast 2 μM, PDE3 inhibition did not abrogate) was “abrogated the FGF1 effect”.
